The values that follow come from PMC3012785 (Journal of neurochemistry, 2010).

Ends that are not written are not given here.

The conditions of the series: rat, in vivo.

Take RHAYRSMAEWGFLYS [PGD3-4]: the Half-life worked out at 2.45 h.
